Assay results reported in paper PMC5688144, “Assay interference and off-target liabilities of reported histone acetyltransferase inhibitors” (Nature Communications, 2017).

Columns and labels:
PCAF = target: T1, PCAF (Homo sapiens, UniProt Q92831); conditions: original report; 27 (Supplementary References); cited from earlier work
T1 construct: Reaction Biology Corporation (assays run by this contract lab)

AmpC β-lactamase = target: T2, AmpC β-lactamase (Escherichia coli, UniProt P00811); test: biochemical; parameters: species or system E. coli; conditions: 10 μM compound; ± 0.01% Triton X-100
T2 construct: Recombinant E. coli AmpC (amino acids 20–377); purchased MyBioSource.com
Experimental: Selected compounds were assessed for aggregation using a modified AmpC β-lactamase counter-screen[24],[32],[64]. Recombinant E. coli AmpC (amino acids 20–377) was obtained from MyBioSource.com. Testing was performed in ALARM NMR buffer (25 mM sodium phosphate, pH 7.0) in flat-bottom UV-transparent 96-well microplates in 150 μL reaction volumes. Compounds were tested in triplicate at 10 μM final concentrations in either the presence or absence of freshly-prepared 0.01% Triton X-100 (v/v). Final concentration of DMSO was 2.0% (v/v). Compounds were incubated with ~5 nM AmpC in 147 μL reaction buffer for 5 min at RT, followed by the addition of 3 μL of nitrocefin substrate (100 μM final concentration). Reaction solutions were gently mixed by pipetting up and down three times using a multichannel pipette. […] Percent activity was normalized to DMSO-only controls. Fluconazole and lidocaine were included as negative aggregation control compounds. Rottlerin was included as a positive aggregation control compound. Aggregators were defined as compounds with significant detergent-dependent changes in AmpC activity (t-test, adjusted P-value <0.05; mean differences greater than 30%). Activators were defined as compounds that increased AmpC enzymatic activity.

[1] = UPLC-MS gross compound stability in assay buffer; conditions: 25 mM sodium phosphate, pH 7.0, 30 °C, no GSH or CoA
Experimental: Select compounds were incubated up to 24 h for additional stability analyses. Chromatograms and mass spectra were qualitatively analyzed for the formation of new peaks and/or loss of parent peaks.

human La antigen = target: T3, human La antigen (Homo sapiens, UniProt P05455, T302N); test: ALARM NMR; format: binding; conditions: 400 μM compound; for ALARM NMR, (-) DTT: 0 mM DTT; for ALARM NMR, (+) DTT: DTT present; for ALARM NMR interpretation: with and without DTT
T3 construct: amino acids 100–324 of the human La antigen (plus T302N mutation); 6xHis (N); 6xHis (C); host or cells: Escherichia coli Rosetta cells
T3 sequence (P05455 100-324 T302N): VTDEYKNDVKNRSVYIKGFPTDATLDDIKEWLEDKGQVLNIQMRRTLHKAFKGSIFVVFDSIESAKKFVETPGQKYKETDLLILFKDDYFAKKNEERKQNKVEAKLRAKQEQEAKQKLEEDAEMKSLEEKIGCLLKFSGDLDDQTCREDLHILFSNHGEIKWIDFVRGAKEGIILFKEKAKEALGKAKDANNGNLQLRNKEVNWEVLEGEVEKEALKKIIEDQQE
Source text: The gene encoding amino acids 100–324 of the human La antigen (plus T302N mutation) was cloned into pET28b + vector (Novagen) with both an N- and C-terminal 6xHis tag (addgene.org, plasmid ID 90209). The sequence identity of the ALARM NMR plasmid construct was verified by Sanger sequencing of the transgene region and next-generation sequencing of the whole plasmid.
Plasmid was transformed into Escherichia coli Rosetta cells (Novagen) and cultured in M9 minimal media. The La antigen was labeled by adding ^13C-labeled amino acid precursors ([3-^13C]-α-ketobutyrate and [3,3′-^13C]-α-ketoisovalerate sodium salts; Cambridge Isotope Laboratories; 250 mg L^−1 final concentrations) to culture medium 30 min before induction with IPTG (1 mM final concentration). Bacteria were collected after incubation at 25 °C for 8 h and washed with ice-cold phosphate-buffered saline (PBS). Washed cells were lysed by French press in ice-cold lysis buffer (50 mM Tris, pH 7.6, 300 mM NaCl, 10% glycerol (v/v), 5 mM β-mercaptoethanol (BME), 5 mM imidazole, 2 mM MgCl2, benzonase, and protease inhibitor cocktail), followed by an additional brief sonication step (3 × 15 s pulse sequence) on ice. This lysed solution was centrifuged (30,000×g for 30 min, two cycles) to remove cellular debris, then loaded onto a pre-washed Ni-NTA bead column (Qiagen) kept at 4 °C and washed with buffer (50 mM Tris, pH 7.6, 300 mM NaCl, 10% glycerol (v/v), 5 mM BME, 5 mM imidazole). The La antigen was eluted with an elution buffer (50 mM Tris, pH 7.6, 300 mM NaCl, 10% glycerol (v/v), 5 mM BME, imidazole gradient ranging from 5 mM to 0.5 M). […] Aliquots were flash-frozen in liquid N2 and stored at −80 °C until further use. Before use, aliquots of ~150 μM protein were incubated in the presence of 20 mM DTT at 37 °C for 1 h, then dialyzed (25 mM sodium phosphate buffer, pH 7.0 (no DTT)) in 16 h cycles at 4 °C with constant nitrogen bubbling and with gentle stirring, for three total buffer cycles.
For standard testing conditions, the [^1H-^13C]-HMQC spectra were acquired in 25 mM sodium phosphate buffer, pH 7.0, 10% D2O (v/v; CIL) ± 400 μM test compounds delivered from the aforementioned stock solutions, and ± 20 mM non-deuterated DTT. Final concentration of DMSO was 4.0% (v/v). Reaction solutions were mixed, then centrifuged for 5 min (1000×g) in non-binding 384-well microplates at RT, then incubated at 37 °C for 1 h and then 30 °C for 15 h before obtaining spectra. Samples were checked for evidence of gross precipitation. Data were recorded at 298 K on a Bruker UltraShield 700 MHz NMR spectrometer equipped with a Bruker 1.7 mm TCI Cryoprobe and Bruker SampleJet autosampler. Samples were tested at 50 μM protein concentrations using 16 scans, 2048 complex points in F2, and 80 points in F1 using standard protein [^1H-^13C]-HMQC and water suppression pulse sequences.
Data were analyzed in TopSpin™ 3.5 (Bruker). Reactions were normalized to equivalent DMSO controls. Non-reactive compounds were identified by the absence of chemical shifts or changes in peak intensities (^13C-methyl) ± 20 mM DTT.

Absorbance spectra = format: physicochemical; conditions: 25 mM sodium phosphate, pH 7.0
Experimental: Selected test compounds were assessed for absorption between 300 and 750 nm. Most compound absorption spectra were obtained at 100, 50, and 10 μM final compound concentrations in ALARM NMR buffer (25 mM sodium phosphate, pH 7.0). Final concentration of DMSO was constant at 2.0% (v/v). Compounds were allowed to incubate at RT in buffer for 10 min in UV-transparent polystyrene 384-well plates. Absorbance spectra were then obtained on a SpectraMax M3 or BMG Labtech CLARIOstar microplate reader at 25 °C. Significant absorbance was defined as molar absorptivity constants greater than 2000 M^−1 cm^−1 at wavelengths greater than 300 nm.

MOZ [2] = target: MOZ; parameters: method as in ref 26 (Supplementary References); conditions: original report; ref 26 (Supplementary References); cited from earlier work
MOF = test system: MOF; parameters: method as in ref 19, 26 (Supplementary References); conditions: original report; 26 (Supplementary References); cited from earlier work
MOZ [3] = conditions: original report; ref 26 (Supplementary References); cited from earlier work
[4] = parameters: method as in not given; conditions: noted in discussion; ref not given; cited from earlier work
p300/CBP = conditions: original report; 27 (Supplementary References); cited from earlier work

Row | SMILES | IC50 (PCAF) [µM] | AmpC aggregation counter-screen (AmpC β-lactamase) | UPLC-MS buffer stability counter-screen [1] | ALARM NMR, (-) DTT (human La antigen) | ALARM NMR, (+) DTT (human La antigen) | ALARM NMR interpretation (human La antigen) | Absorption max (nm) (Absorbance spectra) | Absorbance counter-screen (Absorbance spectra; 300-750 nm) | Kd (MOZ [2]) [µM] | IC50 (MOF) [µM] | Ki (MOZ [3]) [µM] | ALARM NMR readout (human La antigen; overall readout) | cell permeability [4] | IC50 (p300/CBP) [µM]
1 | N#Cc1c2ccc(N)cc2nc2cc(N)ccc12 [Compound 22, CTx-1] | > 100 | Detergent-insensitive | Grossly stable | Negative | Negative | Inert as tested | Nominal | Negative | 0.38 | > 100 | 2.4 | – | – | –
2 | CC(=O)N[C@H](CCCCNC(=O)CSCCNC(=O)CCNC(=O)C(O)C(C)(C)COP(=O)(O)OP(=O)(O)OC[C@H]1O[C@@H](n2cnc3c(N)ncnc32)[C@H](O)[C@@H]1OP(=O)(O)O)C(N)=O (stereo partly shown) [Compound 23, Lys-CoA] | 200 | Detergent-insensitive | – | Negative | Negative | Inert as tested | – | – | – | – | – | negative | cell-impermeable | 0.5
